Data published in patent US20040121307A1, “Early detection of cellular differentiation using optophoresis” (Genoptix, Inc, priority 2002, published 2004).
Values after ≈ are worked out from the molar mass of the structure shown.

Assays:
Type in all cases: cell-based
U937 cells [1] = test: Experiment 2: time and concentration dependence of PMA, escape velocity; set-up: escape velocity, Ave.: unit not given here
Description: This experiment was conducted to test the effect of PMA concentration on the escape velocity of U937 cells. PMA concentrations of 10 ng/ml, 1 ng/ml, 100 pg/ml, 10 pg/ml and 1 pg/ml were tested. The control sample received EtOH and not PMA.
The PMA concentration was tested at three timepoints: 1 hour, 3 hours and 5 hours. At each timepoint, 300 μl of cells were removed from each flask. The cells were then spun for 5 minutes at 5000 rpm. The cells were then resuspended in […] PBS/1% BSA and […] of trypan blue.

U937 cells [2] = test: Experiment 13: quantitative determination of PKC activation, escape velocity dose response; details: for escape velocity, Average: five hours
Description: Optophoretic analysis was used to develop a full dose response curve for U937 cells treated with PMA. U937 cells were incubated with varying amounts of PMA dissolved in DMSO. The following concentrations of PMA were tested: 0.156 ng/ml, 0.312 ng/ml, 0.625 ng/ml, 1.25 ng/ml, 2.5 ng/ml, 5 ng/ml, and no PMA (control). The cells were incubated with the PMA solutions (or simply DMSO in the case of the control) for five hours. At the end of the incubation period, the cells were centrifuged down for five minutes at 5000 rpm. The supernatent was then removed and the pellet resuspended in 1 ml PBS/1% BSA buffer plus 1:10 trypan blue. The cells were then loaded onto a cover slip containing agarose that was spin-coated onto the surface thereof. Escape velocity measurements were then taken using a 100 mW laser having a beam diameter of 28 pixels. Table 9 reproduced below sets forth the measured escape velocities (μm/sec) for each of the various PMA concentrations.
The method described above may be used to quantitatively determine the level of PKC activation in cells in response to exposure to PKC activating compound using a moving optical gradient. The method includes the steps of first providing a series of cell samples and exposing the series of cell samples to different concentrations of the PKC activating compound. After a period of incubation from about one to several hours, the cells and the optical gradient are moved relative to each other so as to cause displacement of at least some of the cells. Next, the displacement of at least a portion of the displaced cells is measured for each of the different concentrations. […] From the dose response curve, one is able to calculate one or more numerical values that correlate to PKC potency and/or efficacy. For example, the dose response curve can be used to calculate the EC50, Hill slope, or plateau value relative to a standard compound.

HL-60 cells = test: Cellular differentiation of HL-60, fast scan time course; details: 400 ng/ml PMA, fast scan
Description: Fast scan analysis was also performed on HL-60 cells that were treated with PMA and DMSO. A time course evaluation of PMA treated HL-60 cells was performed with fast scan data taken at 16 hours, 24 hours, 40 hours, and 72 hours post-treatment with 400 ng/ml PMA. A control sample of HL-60 cells was also tested using EtOH as the vehicle for purposes of comparing the differentiated cells with the undifferentiated HL-60 cells. The PMA-treated and control cells were harvested and trypsinized. The samples were then resuspended in PBS/1% BSA. A set of samples was also obtained and left as pellets at 4° C. for subsequent FACS analysis.
A time course evaluation of DMSO treated HL-60 cells was performed with fast scan data taken at 16 hours, 24 hours, 40 hours, and 70 hours post-treatment with 1% DMSO. A control sample of HL-60 cells was also tested for purposes of comparing the differentiated cells with the undifferentiated HL-60 cells. The DMSO-treated and control cells were then harvested and resuspended in PBS/1% BSA. A set of samples was also obtained and left as pellets at 4° C. for subsequent FACS analysis.

U937 cells [3] = test: Experiment 3: PMA inhibition by bisindolymaleimide, escape velocity; details: 10 ng/ml PMA only, four hours
Description: The objective of this experiment was to test the effect of bisindolymaleimide on cells exposed to PMA. Bisindolymaleimide is a Protein Kinase C inhibitor and should block the effect of PMA on U937 cells and their escape velocities. As shown in this and prior experiments, exposure of U937 cells to PMA results in an increase in the escape velocity of the cells. Therefore, it is anticipated that addition of bisindolymaleimide will reduce or eliminate the increase in escape velocity caused by PMA. This has in fact been observed in the data shown below.
Bisindolymaleimide was tested at two concentrations: 200 ng/ml and 50 ng/ml. Samples not treated with bisindolymaleimide received an equivalent amount of the carrier, MeOH, as a control. […] The concentration of PMA tested was 10 ng/ml. Samples not receiving PMA received DMSO.
Once the flasks were prepared, they were incubated at 37° C. 5% CO2 for four hours. At the four hour timepoint, 300 μl of cells were removed from each flask and pelleted at 5000 rpm for 5 minutes. The cells were then resuspended in 6 ml PBS/1% BSA and 60 μl trypan blue.

U937 cells [4] = test: Experiment 1: time course dependence of PMA activation, escape velocity
Description: The objective of this experiment is to compare the escape velocities of U937 cells that have been treated with the phorbol ester, phorbol 12 myristate 13-acetate (PMA), to the escape velocity of untreated U937 cells. PMA activates the Protein Kinase C pathway and may cause the cells to go into rapid cell differentiation, which may be indicated by a shift in escape velocity. […] At the end of the activation period, the cells were centrifuged for 4 minutes at 10,000 rpm. The supernatant was then removed and the pellet resuspended in 1 ml PBS/1% BSA buffer. The cells were then centrifuged again and resuspended in buffer. The escape velocity and the cell size of cells from each tube were then calculated.
The time dependent effect of PMA was clearly present as can been seen in the shift of escape velocity to higher speeds over greater time periods.

CCCCCCCCCCCCCC(=O)O[C@@H]1[C@@H](C)[C@@]2(O)[C@@H](C=C(CO)C[C@]3(O)C(=O)C(C)=C[C@@H]23)[C@@H]2C(C)(C)[C@]12OC(C)=O [PMA, phorbol 12 myristate 13-acetate]
escape velocity, Ave. (U937 cells [1]; 10 pg/ml PMA, 1 Hour Activation): 14.4 | escape velocity, Ave. (U937 cells [1]; 10 pg/ml PMA, 3 Hour Activation): 14.5 | escape velocity, Ave. (U937 cells [1]; 10 pg/ml PMA, 5 Hour Activation): 14.1 | escape velocity, Ave. (U937 cells [1]; 100 pg/ml PMA, 1 Hour Activation): 14.4 | escape velocity, Ave. (U937 cells [1]; 100 pg/ml PMA, 3 Hour Activation): 15.5 | escape velocity, Ave. (U937 cells [1]; 100 pg/ml PMA, 5 Hour Activation): 16.1 | escape velocity, Ave. (U937 cells [1]; 1 ng/ml PMA, 1 Hour Activation): 14.3 | escape velocity, Ave. (U937 cells [1]; 1 ng/ml PMA, 3 Hour Activation): 15.1 | escape velocity, Ave. (U937 cells [1]; 1 ng/ml PMA, 5 Hour Activation): 16.5 | escape velocity, Ave. (U937 cells [1]; 10 ng/ml PMA, 1 Hour Activation): 14.8 | escape velocity, Ave. (U937 cells [1]; 10 ng/ml PMA, 3 Hour Activation): 15.2 | escape velocity, Ave. (U937 cells [1]; 10 ng/ml PMA, 5 Hour Activation): 16.2 | Optophoretic difference versus control (U937 cells [1]; two lowest concentrations, 10 pg/ml and 1 pg/ml PMA): showed no Optophoretic difference | escape velocity, Average (U937 cells [2]; 1.25 ng/ml PMA): 17.0 μm/sec | escape velocity, Average (U937 cells [2]; 2.5 ng/ml PMA): 17.0 μm/sec | escape velocity, Average (U937 cells [2]; 5 ng/ml PMA): 17.3 μm/sec | escape velocity, Average (U937 cells [2]; .156 ng/ml PMA): 15.8 μm/sec | escape velocity, Average (U937 cells [2]; .312 ng/ml PMA): 16.0 μm/sec | escape velocity, Average (U937 cells [2]; .625 ng/ml PMA): 16.6 μm/sec | EC50 (U937 cells [2]; Homo sapiens, U-937, 5 h, U937 cells, five hours (FIG. 53), read-out: EC50 value of the PMA dose response curve (escape velocity)): ~0.625 ng/mL (≈ 1.01 nM) | time after treatment at which Optophoretic analysis detected cellular differentiation into monocytes/macrophages (HL-60 cells): ≤ 16 h | average escape velocity (U937 cells [3]): 15.4 μm/sec | distribution of escape velocities (U937 cells [4]; 0.01 μg/ml PMA, 6 and 9 hours post treatment (FIG. 31)): clear trend toward higher escape velocities over time | escape velocity, Average (U937 cells [4]; 1 hour of PMA activation): 15.3 μm/sec | escape velocity, Average (U937 cells [4]; 6 hours of PMA activation): 28.0 μm/sec
